From paper PMC6086658, “Unified mechanisms for self-RNA recognition by RIG-I Singleton-Merten syndrome variants” (eLife, 2018)
Positions count from the first letter of the chain named. Read-outs that look alike come from different tables or passages of the source.

Assays:
RIG-I = target: T1, RIG-I (Homo sapiens, UniProt O95786); test: MANT-nucleotide binding, tryptophan fluorescence FRET; details: absence of RNA; full-length His-RIG-I; n = 4; read-out: Affinity (KD) to RIG-I
T1 construct: Recombinant full-length human RIG-I or RIG-I single amino acid mutants (1–925, N-terminal His-tag); made in house; host or cells: High Five (Trichoplusia ni) insect cells, baculovirus, pFBDM vector
T1 sequence (O95786 1-925): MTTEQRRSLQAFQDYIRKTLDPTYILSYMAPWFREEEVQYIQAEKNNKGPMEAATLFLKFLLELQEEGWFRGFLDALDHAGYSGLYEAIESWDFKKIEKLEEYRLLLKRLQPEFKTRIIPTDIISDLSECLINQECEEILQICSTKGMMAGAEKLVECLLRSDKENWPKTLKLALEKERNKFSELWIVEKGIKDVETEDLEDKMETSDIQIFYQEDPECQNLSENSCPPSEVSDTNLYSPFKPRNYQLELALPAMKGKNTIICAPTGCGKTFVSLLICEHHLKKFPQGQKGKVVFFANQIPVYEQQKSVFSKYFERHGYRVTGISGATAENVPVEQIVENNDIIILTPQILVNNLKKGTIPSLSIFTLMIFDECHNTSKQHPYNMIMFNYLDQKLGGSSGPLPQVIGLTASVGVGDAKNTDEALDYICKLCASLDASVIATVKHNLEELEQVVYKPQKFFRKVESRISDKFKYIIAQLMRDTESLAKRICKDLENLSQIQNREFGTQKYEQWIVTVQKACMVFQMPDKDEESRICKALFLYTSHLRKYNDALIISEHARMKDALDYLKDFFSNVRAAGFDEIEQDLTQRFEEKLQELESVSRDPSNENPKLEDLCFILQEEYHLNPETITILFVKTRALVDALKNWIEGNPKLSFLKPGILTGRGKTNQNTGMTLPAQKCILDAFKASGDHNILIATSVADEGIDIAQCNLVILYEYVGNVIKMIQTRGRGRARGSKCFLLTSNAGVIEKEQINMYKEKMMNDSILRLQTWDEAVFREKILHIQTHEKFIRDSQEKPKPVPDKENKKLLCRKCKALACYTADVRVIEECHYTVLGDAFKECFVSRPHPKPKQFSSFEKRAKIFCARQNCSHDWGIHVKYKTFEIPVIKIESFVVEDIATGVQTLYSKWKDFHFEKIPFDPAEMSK
Procedure: (§1) Binding of MANT-ATP and MANT-ATPγS to different full-length RIG-I mutants (1–925, N-terminal His-tag) was determined via Förster resonance energy transfer from RIG-I to MANT-ATP (Jena Bioscience, Jena, Germany). […] Fluorescence of MANT-ATP was measured in a TECAN M1000 microplate reader at λex/em = 290/448 nm, gain = 170 using an average of five reads per well. Assays were performed four times in independent experiments using the same protein purification batch. For determination of affinities fluorescence values were fitted to Equation (1) using R, where y is the fluorescence, [P] is the protein concentration, Bmax is the maximal fluorescence and KD is the dissociation constant. Fitting was performed globally on all available datasets. Representative values in figures are mean values ± SD.

RIG-I E373Q = target: T2, RIG-I E373Q (Homo sapiens, UniProt O95786, E373Q); test: as above; details: n = 4
T2 construct: different full-length RIG-I mutants (1–925, N-terminal His-tag); made in house; host or cells: High Five (Trichoplusia ni) insect cells, baculovirus, pFBDM vector
T2 sequence (O95786 1-925 E373Q): T1 sequence (O95786 1-925) with E373Q
Procedure: as §1

Kd (RIG-I): 72 ± 13 µM
Kd (RIG-I E373Q; absence of RNA, read-out: Affinity (KD) to RIG-I E373Q): 72 ± 13 µM
Kd (RIG-I E373Q; presence of equimolar 14mer dsRNA, read-out: Affinity (KD) to RIG-I E373Q + RNA): 28 ± 5 µM
Substance: MANT-ATP
